Where “and” joins values, the source holds several entries; their conditions need not be identical. Equal values may be shown once. Toxic doses and inconclusive results are not listed. Square brackets hold non-standard residues; d marks the D form. Peptide text beside a SMILES is read from it. * marks the point of attachment. Cbz = O=C(OCc1ccccc1)*; Nva = CCC[CH](N)C(=O)O
Test system: BDF1 mice, B16 melanoma ip, median survival T/C
Assay: NCI In Vivo Anticancer Drug Screen. Data for tumor model B16 Melanoma (intraperitoneal) in B6D2F1 (BDF1) mice
Conditions: endpoint: median survival time, higher = longer survival
In short: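 Mice with transplantable tumors; drug vs vehicle groups; endpoint survival or tumor size; value = T/C.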

[1] = dose: 25.0 mg/kg/injection, schedule: Q01DX009 (ip), vehicle: Klucel (hydroxypropylcellulose) (HPC)
[2] = dose: 50.0 mg/kg/injection, schedule: Q01DX009 (ip), vehicle: Klucel (hydroxypropylcellulose) (HPC)
[3] = dose: 100.0 mg/kg/injection, schedule: Q01DX009 (ip), vehicle: Klucel (hydroxypropylcellulose) (HPC)
[4] = dose: 200.0 mg/kg/injection, schedule: Q01DX009 (ip), vehicle: Klucel (hydroxypropylcellulose) (HPC)
[5] = dose: 25.0 mg/kg/injection, schedule: Q01DX009 (ip), vehicle: saline
[6] = dose: 50.0 mg/kg/injection, schedule: Q01DX009 (ip), vehicle: saline
[7] = dose: 100.0 mg/kg/injection, schedule: Q01DX009 (ip), vehicle: saline
[8] = dose: 12.5 mg/kg/injection, schedule: Q01DX009 (ip), vehicle: saline with Tween-80
[9] = dose: 25.0 mg/kg/injection, schedule: Q01DX009 (ip), vehicle: saline with Tween-80
[10] = dose: 50.0 mg/kg/injection, schedule: Q01DX009 (ip), vehicle: saline with Tween-80
[11] = dose: 6.25 mg/kg/injection, schedule: Q01DX009 (ip), vehicle: saline with Tween-80
[12] = dose: 25.0 mg/kg/injection, schedule: Q04DX003 (ip), vehicle: saline
[13] = dose: 100.0 mg/kg/injection, schedule: Q04DX003 (ip), vehicle: Klucel (hydroxypropylcellulose) (HPC)
[14] = dose: 200.0 mg/kg/injection, schedule: Q04DX003 (ip), vehicle: Klucel (hydroxypropylcellulose) (HPC)
[15] = dose: 6.25 mg/kg/injection, schedule: Q01DX009 (ip), vehicle: Klucel (hydroxypropylcellulose) (HPC)
[16] = dose: 12.5 mg/kg/injection, schedule: Q01DX009 (ip), vehicle: Klucel (hydroxypropylcellulose) (HPC)
[17] = dose: 100.0 mg/kg/injection, schedule: Q01DX009 (ip), vehicle: saline with Tween-80

`CC(=O)c1ccc(F)cc1` was tested, and the T/C [1] was 100 % of control, the T/C [2] was 106 % of control and the T/C [3] was 103 % of control. For the same compound, the T/C [4] was 106 % of control.
`CCN(CC)CCNC1CCCCC1` was tested, and the T/C [5] was 102 % of control, the T/C [6] was 112 % of control and the T/C [7] was 98 % of control.
With `Cc1noc2nccnc12` the T/C [8] was 92 % of control, the T/C [9] was 95 % of control and the T/C [10] was 88 % of control.
With `CC(C)=CC(=O)CC(O)(C(F)(F)F)C(F)(F)Cl` (configuration not stated) the T/C [11] was 97 % of control, the T/C (dose: 6.25 mg/kg/injection, schedule: Q04DX003 (ip), vehicle: saline) was 100 % of control and the T/C [8] was 90 % of control. For the same compound, the T/C (dose: 12.5 mg/kg/injection, schedule: Q04DX003 (ip), vehicle: saline) was 89 % of control, the T/C [9] was 92 % of control and the T/C [12] was 89 % of control.
With `CCOC(=O)C(N)C[S][Sn]([CH3])([CH3])[Cl]` (configuration not stated) the T/C [11] was 105 % of control, the T/C [8] was 88 % of control and the T/C [9] was 100 % of control.
For `CCCCNS(=O)(=O)c1ccc(OC)c(N)c1`, the T/C [13] was 95 % of control, the T/C [14] was 95 % of control and the T/C (dose: 400.0 mg/kg/injection, schedule: Q04DX003 (ip), vehicle: Klucel (hydroxypropylcellulose) (HPC)) was 111 % of control.
With `Clc1ccccc1C=Nc1ccc2c(c1)Cc1ccccc1-2` the T/C [3] was 96 % of control, the T/C [4] was 96 % of control and the T/C (dose: 400.0 mg/kg/injection, schedule: Q01DX009 (ip), vehicle: Klucel (hydroxypropylcellulose) (HPC)) was 87 % of control.
For `CN(C)N=Nc1ccc(NC(N)=O)cc1`, the T/C (dose: 18.75 mg/kg/injection, schedule: Q01DX009 (ip), vehicle: Klucel (hydroxypropylcellulose) (HPC)) was 123 % of control and the T/C (dose: 37.5 mg/kg/injection, schedule: Q01DX009 (ip), vehicle: Klucel (hydroxypropylcellulose) (HPC)) was 86 % of control.
`O=C(Nc1ccc(N=C=S)cc1Cl)c1cc(Cl)cc(Cl)c1O` was tested, and the T/C [15] was 104 % of control, the T/C [16] was 102 % of control and 111 % of control and the T/C [1] was 110 % of control and 111 % of control. The T/C [2] was 108 % of control and 118 % of control.
For `CC(=O)Nc1ccc2c(Nc3ccc(NS(C)(=O)=O)cc3)c3ccccc3nc2c1`, the T/C (dose: 3.8 mg/kg/injection, schedule: Q01DX009 (ip), vehicle: saline sonified) was 112 % of control, the T/C (dose: 7.5 mg/kg/injection, schedule: Q01DX009 (ip), vehicle: saline sonified) was 110 % of control and the T/C (dose: 15.0 mg/kg/injection, schedule: Q01DX009 (ip), vehicle: saline with Tween-80) was 162 % of control. For the same compound, the T/C (dose: 30.0 mg/kg/injection, schedule: Q01DX009 (ip), vehicle: saline sonified) was 164 % of control, the T/C (dose: 30.0 mg/kg/injection, schedule: Q01DX009 (ip), vehicle: saline with Tween-80) was 185 % of control and the T/C (dose: 200.0 mg/kg/injection, schedule: Q01DX001 (ip), vehicle: saline sonified) was 155 % of control. The T/C (dose: 400.0 mg/kg/injection, schedule: Q01DX001 (ip), vehicle: saline sonified) was 194 % of control.
`CC(=O)Nc1cccc([N+](=O)[O-])c1` was tested, and the T/C [10] was 109 % of control, the T/C [17] was 97 % of control and the T/C (dose: 200.0 mg/kg/injection, schedule: Q01DX009 (ip), vehicle: saline with Tween-80) was 97 % of control.
`O=[n+]1ccn2cc3ccccc3cc2c1` was tested, and the T/C (dose: 3.75 mg/kg/injection, schedule: Q01DX009 (ip), vehicle: saline) was 102 % of control and the T/C (dose: 7.5 mg/kg/injection, schedule: Q01DX009 (ip), vehicle: saline) was 105 % of control.
In the case of `NCCNc1ccc(NCCN)c2c1C(=O)c1ccccc1C2=O`, the T/C (dose: 4.0 mg/kg/injection, schedule: Q01DX009 (ip), vehicle: acid diluted with saline) is reported as 210 % of control and the T/C (dose: 8.0 mg/kg/injection, schedule: Q01DX009 (ip), vehicle: acid diluted with saline) is reported as 218 % of control.
For `CCC(C)C(NC(=O)c1ccccc1)C(=O)O` (configuration not stated), the T/C [11] was 100 % of control, the T/C [8] was 101 % of control and the T/C [9] was 95 % of control. The T/C [10] was 90 % of control and 94 % of control.
With `O=[N+]([O-])c1cc([N+](=O)[O-])cc(S(=O)(=O)O)c1` the T/C [12] was 108 % of control, the T/C (dose: 50.0 mg/kg/injection, schedule: Q04DX003 (ip), vehicle: saline) was 97 % of control and the T/C (dose: 100.0 mg/kg/injection, schedule: Q04DX003 (ip), vehicle: saline) was 87 % of control.
`C#CCOCC(CCl)OC(N)=O` (configuration not stated) was tested, and the T/C (dose: 50.0 mg/kg/injection, schedule: Q04DX003 (ip), vehicle: saline with Tween-80) was 111 % of control, the T/C (dose: 100.0 mg/kg/injection, schedule: Q04DX003 (ip), vehicle: saline with Tween-80) was 105 % of control and the T/C (dose: 200.0 mg/kg/injection, schedule: Q04DX003 (ip), vehicle: saline with Tween-80) was 108 % of control.
`NC1(c2ccccc2)CCCCC1` was tested, and the T/C (dose: 3.12 mg/kg/injection, schedule: Q01DX009 (ip), vehicle: saline) was 86 % of control, the T/C (dose: 6.25 mg/kg/injection, schedule: Q01DX009 (ip), vehicle: saline) was 100 % of control and the T/C (dose: 12.5 mg/kg/injection, schedule: Q01DX009 (ip), vehicle: saline) was 102 % of control. For the same compound, the T/C [5] was 100 % of control and the T/C [6] was 100 % of control.
With `O=C(C=C(C(F)(F)F)C(F)(F)F)c1cccc([N+](=O)[O-])c1` the T/C (dose: 0.2 mg/kg/injection, schedule: Q01DX009 (ip), vehicle: saline) was 95 % of control, the T/C (dose: 0.4 mg/kg/injection, schedule: Q01DX009 (ip), vehicle: saline) was 102 % of control and the T/C (dose: 0.8 mg/kg/injection, schedule: Q01DX009 (ip), vehicle: saline) was 95 % of control. The T/C [11] was 86 % of control, the T/C (dose: 6.25 mg/kg/injection, schedule: Q04DX003 (ip), vehicle: saline with Tween-80) was 113 % of control and the T/C (dose: 25.0 mg/kg/injection, schedule: Q04DX003 (ip), vehicle: saline with Tween-80) was 111 % of control.
In the case of `FC(F)(F)C(=Cc1nc2ccccc2s1)C(F)(F)F`, the T/C [15] is reported as 103 % of control and the T/C [16] is reported as 100 % of control.
With `CCCCCCCCCCNCCC(=O)O` the T/C (dose: 0.58 mg/kg/injection, schedule: Q01DX009 (ip), vehicle: saline) was 98 % of control, the T/C (dose: 1.1 mg/kg/injection, schedule: Q01DX009 (ip), vehicle: saline) was 96 % of control and the T/C (dose: 2.3 mg/kg/injection, schedule: Q01DX009 (ip), vehicle: saline) was 95 % of control. For the same compound, the T/C (dose: 37.5 mg/kg/injection, schedule: Q01DX009 (ip), vehicle: saline) was 102 % of control.
In the case of `CCCCCC[N+](CCCCCC)(CCCCCC)CCCCCC`, the T/C (dose: 0.75 mg/kg/injection, schedule: Q01DX009 (ip), vehicle: Klucel (hydroxypropylcellulose) (HPC)) is reported as 88 % of control and the T/C (dose: 1.5 mg/kg/injection, schedule: Q01DX009 (ip), vehicle: Klucel (hydroxypropylcellulose) (HPC)) is reported as 90 % of control.
In the case of `CCCC(NC(=O)C(Cc1ccccc1)NC(=O)OCc1ccccc1)C(=O)O` (stereo not drawn) (Cbz-Phe-[Nva]-OH; configuration not given here), the T/C [10] is reported as 95 % of control and the T/C [17] is reported as 92 % of control.
`CC(=O)OCc1cccnc1` was tested, and the T/C [6] was 97 % of control, the T/C [7] was 101 % of control and the T/C (dose: 200.0 mg/kg/injection, schedule: Q01DX009 (ip), vehicle: saline) was 106 % of control. The T/C (dose: 400.0 mg/kg/injection, schedule: Q01DX009 (ip), vehicle: saline) was 107 % of control.
With `CCOC(=O)C(Cc1ccccc1)NP(=O)(OCCCl)OCCCl` (configuration not stated) the T/C [13] was 104 % of control and the T/C [14] was 86 % of control.
In the case of `O=C1CN=C(c2ccccc2)c2cc(Cl)ccc2N1`, the T/C [15] is reported as 102 % of control, the T/C [16] is reported as 90 % of control and the T/C [1] is reported as 90 % of control.
With `CC1(S)CCC2CC1C2(C)C` (configuration not stated) the T/C [16] was 94 % of control, the T/C [1] was 94 % of control and the T/C [2] was 89 % of control.
For `Cn1ccc(=Nc2ccc(NC(=O)c3ccc(N=c4ccn(C)c5ccc([N+](=O)[O-])cc45)cc3)cc2)cc1`, the T/C (dose: 3.13 mg/kg/injection, schedule: Q01DX009 (ip), vehicle: other) was 101 % of control, the T/C (dose: 6.25 mg/kg/injection, schedule: Q01DX009 (ip), vehicle: other) was 101 % of control and the T/C (dose: 12.5 mg/kg/injection, schedule: Q01DX009 (ip), vehicle: other) was 100 % of control. The T/C (dose: 25.0 mg/kg/injection, schedule: Q01DX009 (ip), vehicle: other) was 97 % of control.
